Test results published in ChEMBL document CHEMBL5576056, “Design, synthesis and biological evaluation of novel quinazoline derivatives as immune checkpoint inhibitors” (Bioorg Med Chem Lett, 2024).
The source made the active and inactive calls. The rule behind the calls is not given here.

Test system: A2780
Experiment: Induction of apoptosis in human A2780 cells assessed as increase in cleaved PARP level at IC50 concentration incubated for 72 hrs by immunoblotting analysis
Assay type: functional, cell-based
Details: not given

SMILES | Activity
O=C(Nc1cccc(Cl)c1)C1CCN(c2ncnc3ccccc23)CC1 | Active
O=C(Nc1ccccc1Cl)C1CCN(c2ncnc3ccccc23)CC1 | Active
COc1ccc(NC(=O)C2CCN(c3ncnc4ccccc34)CC2)cc1 | Active
O=C(Nc1ccc(Cl)cc1)C1CCN(c2ncnc3ccccc23)CC1 | Active
O=C(Nc1ccc([N+](=O)[O-])cc1)C1CCN(c2ncnc3ccccc23)CC1 | Active

Test system: A2780
Experiment: Downregulation of CD133 expression in human A2780 cells at IC50 concentration
Assay type: functional, cell-based
Details: not given

SMILES | Activity
O=C(Nc1cccc(Cl)c1)C1CCN(c2ncnc3ccccc23)CC1 | Active
O=C(Nc1ccccc1Cl)C1CCN(c2ncnc3ccccc23)CC1 | Active
COc1ccc(NC(=O)C2CCN(c3ncnc4ccccc34)CC2)cc1 | Active
O=C(Nc1ccc(Cl)cc1)C1CCN(c2ncnc3ccccc23)CC1 | Active
O=C(Nc1ccc(Br)cc1)C1CCN(c2ncnc3ccccc23)CC1 | Active
O=C(Nc1ccc([N+](=O)[O-])cc1)C1CCN(c2ncnc3ccccc23)CC1 | Active

Test system: A2780
Experiment: Induction of apoptosis in human A2780 cells assessed as increase in cleaved caspase-9 level at IC50 concentration incubated for 72 hrs by immunoblotting analysis
Assay type: functional, cell-based
Details: not given

SMILES | Activity
O=C(Nc1cccc(Cl)c1)C1CCN(c2ncnc3ccccc23)CC1 | Active
O=C(Nc1ccccc1Cl)C1CCN(c2ncnc3ccccc23)CC1 | Active

Test system: A2780
Experiment: Reduction in IDO1 level in human A2780 cells at IC50 concentration incubated for 72 hrs by immunoblotting analysis
Assay type: functional, cell-based
Details: not given

SMILES | Activity
O=C(Nc1cccc(Cl)c1)C1CCN(c2ncnc3ccccc23)CC1 | Active
O=C(Nc1ccccc1Cl)C1CCN(c2ncnc3ccccc23)CC1 | Active
COc1ccc(NC(=O)C2CCN(c3ncnc4ccccc34)CC2)cc1 | Active
O=C(Nc1ccc(Cl)cc1)C1CCN(c2ncnc3ccccc23)CC1 | Active
O=C(Nc1ccc(Br)cc1)C1CCN(c2ncnc3ccccc23)CC1 | Active
O=C(Nc1ccc([N+](=O)[O-])cc1)C1CCN(c2ncnc3ccccc23)CC1 | Active

Test system: A2780
Experiment: Induction of apoptosis in human A2780 cells assessed as increase in mature AIF expression at IC50 concentration incubated for 72 hrs by immunoblotting analysis
Assay type: functional, cell-based
Details: not given

SMILES | Activity
O=C(Nc1ccccc1Cl)C1CCN(c2ncnc3ccccc23)CC1 | Active
COc1ccc(NC(=O)C2CCN(c3ncnc4ccccc34)CC2)cc1 | Active
O=C(Nc1ccc(Br)cc1)C1CCN(c2ncnc3ccccc23)CC1 | Active
O=C(Nc1ccc([N+](=O)[O-])cc1)C1CCN(c2ncnc3ccccc23)CC1 | Active

Test system: A2780
Experiment: Downregulation of Sox2 expression in human A2780 cells at IC50 concentration
Assay type: functional, cell-based
Details: not given

SMILES | Activity
O=C(Nc1cccc(Cl)c1)C1CCN(c2ncnc3ccccc23)CC1 | Active
O=C(Nc1ccccc1Cl)C1CCN(c2ncnc3ccccc23)CC1 | Active
COc1ccc(NC(=O)C2CCN(c3ncnc4ccccc34)CC2)cc1 | inactive
O=C(Nc1ccc(Cl)cc1)C1CCN(c2ncnc3ccccc23)CC1 | Active
O=C(Nc1ccc(Br)cc1)C1CCN(c2ncnc3ccccc23)CC1 | Active
O=C(Nc1ccc([N+](=O)[O-])cc1)C1CCN(c2ncnc3ccccc23)CC1 | inactive

Test system: A2780
Experiment: Cytotoxicity against cisplatin resistant human A2780 cells assessed as reduction in cell viability at IC50 concentration incubated for 72 hrs in presence of cisplatin by CCK-8 method
Assay type: functional, cell-based
Details: not given

SMILES | Activity
O=C(Nc1ccc(Cl)cc1)C1CCN(c2ncnc3ccccc23)CC1 | Active

Test system: A2780
Experiment: Induction of apoptosis in human A2780 cells assessed as increase in cleaved caspase-8 level at IC50 concentration incubated for 72 hrs by immunoblotting analysis
Assay type: functional, cell-based
Details: not given

SMILES | Activity
O=C(Nc1cccc(Cl)c1)C1CCN(c2ncnc3ccccc23)CC1 | Active
O=C(Nc1ccccc1Cl)C1CCN(c2ncnc3ccccc23)CC1 | Active
O=C(Nc1ccc(Cl)cc1)C1CCN(c2ncnc3ccccc23)CC1 | Active
O=C(Nc1ccc(Br)cc1)C1CCN(c2ncnc3ccccc23)CC1 | Active

Test system: not listed separately
Experiment: Cytotoxicity against non-cancerous fallopian tube ovarian cell (unknown origin)
Assay type: toxicity, cell-based
Details: non-cancerous fallopian tube ovarian cells

SMILES | IC50 [µM]
O=C(Nc1ccccc1)C1CCN(c2ncnc3ccccc23)CC1 | > 50
O=C(Nc1cccc(Cl)c1)C1CCN(c2ncnc3ccccc23)CC1 | > 50
O=C(Nc1ccccc1Cl)C1CCN(c2ncnc3ccccc23)CC1 | > 50
Nc1nonc1C(=NO)Nc1ccc(F)c(Cl)c1 | 18.4
COc1ccc(NC(=O)C2CCN(c3ncnc4ccccc34)CC2)cc1 | > 50
O=C(Nc1ccc(Cl)cc1)C1CCN(c2ncnc3ccccc23)CC1 | > 50
O=C(Nc1ccc(Br)cc1)C1CCN(c2ncnc3ccccc23)CC1 | > 50
O=C(Nc1ccc([N+](=O)[O-])cc1)C1CCN(c2ncnc3ccccc23)CC1 | > 50

Test system: A2780
Experiment: Antiproliferative activity against human A2780 cells assessed as cell viability at 50 uM incubated for 72 hrs by CCK8 assay
Assay type: functional
Details: read-out: Activity

SMILES | viability at 50 µM [%]
O=C(Nc1ccccc1)C1CCN(c2ncnc3ccccc23)CC1 | 42
O=C(Nc1ccc(I)cc1F)C1CCN(c2ncnc3ccccc23)CC1 | 76
O=C(Nc1cccc(Cl)c1)C1CCN(c2ncnc3ccccc23)CC1 | 22
O=C(Nc1ccc(F)cc1)C1CCN(c2ncnc3ccccc23)CC1 | 68
O=C(Nc1ccccc1Cl)C1CCN(c2ncnc3ccccc23)CC1 | 30
O=C(Nc1cccc(F)c1)C1CCN(c2ncnc3ccccc23)CC1 | 58
COc1ccc(NC(=O)C2CCN(c3ncnc4ccccc34)CC2)cc1 | 27
O=C(Nc1ccccc1F)C1CCN(c2ncnc3ccccc23)CC1 | 52
O=C(Nc1cccc2c1OCCO2)C1CCN(c2ncnc3ccccc23)CC1 | 64
O=C(Nc1ccc(F)c(Cl)c1)C1CCN(c2ncnc3ccccc23)CC1 | 53
COc1ccc(NC(=O)C2CCN(c3ncnc4ccccc34)CC2)c(OC)c1 | 60
O=C(Nc1ccc(Cl)cc1)C1CCN(c2ncnc3ccccc23)CC1 | 26
O=C(Nc1ccc(Br)cc1)C1CCN(c2ncnc3ccccc23)CC1 | 28
O=C(Nc1ccc([N+](=O)[O-])cc1)C1CCN(c2ncnc3ccccc23)CC1 | 33

Test system: A2780
Experiment: Antiproliferative activity against human A2780 cells assessed as cell viability incubated for 72 hrs by CCK8 assay
Assay type: functional, cell-based
Details: A2780, 72 h

SMILES | IC50 [µM]
O=C(Nc1ccccc1)C1CCN(c2ncnc3ccccc23)CC1 | > 50
O=C(Nc1cccc(Cl)c1)C1CCN(c2ncnc3ccccc23)CC1 | 12.2
O=C(Nc1ccccc1Cl)C1CCN(c2ncnc3ccccc23)CC1 | 22.6
Nc1nonc1C(=NO)Nc1ccc(F)c(Cl)c1 | 14.9
COc1ccc(NC(=O)C2CCN(c3ncnc4ccccc34)CC2)cc1 | 9.91
O=C(Nc1ccc(Cl)cc1)C1CCN(c2ncnc3ccccc23)CC1 | 5.68
O=C(Nc1ccc(Br)cc1)C1CCN(c2ncnc3ccccc23)CC1 | 10.8
O=C(Nc1ccc([N+](=O)[O-])cc1)C1CCN(c2ncnc3ccccc23)CC1 | 4.95

Test system: A2780
Experiment: Reduction in PD-L1 expression in human A2780 cells at IC50 concentration incubated for 72 hrs by immunoblotting analysis
Assay type: functional, cell-based
Details: not given

SMILES | Activity
O=C(Nc1cccc(Cl)c1)C1CCN(c2ncnc3ccccc23)CC1 | Active
O=C(Nc1ccccc1Cl)C1CCN(c2ncnc3ccccc23)CC1 | Active
COc1ccc(NC(=O)C2CCN(c3ncnc4ccccc34)CC2)cc1 | Active
O=C(Nc1ccc(Cl)cc1)C1CCN(c2ncnc3ccccc23)CC1 | Active
O=C(Nc1ccc(Br)cc1)C1CCN(c2ncnc3ccccc23)CC1 | Active
O=C(Nc1ccc([N+](=O)[O-])cc1)C1CCN(c2ncnc3ccccc23)CC1 | Active

Test system: A2780
Experiment: Induction of apoptosis in human A2780 cells assessed as increase in cytochrome C release at IC50 concentration incubated for 72 hrs by immunoblotting analysis
Assay type: functional, cell-based
Details: not given

SMILES | Activity
O=C(Nc1cccc(Cl)c1)C1CCN(c2ncnc3ccccc23)CC1 | Active
O=C(Nc1ccccc1Cl)C1CCN(c2ncnc3ccccc23)CC1 | Active
COc1ccc(NC(=O)C2CCN(c3ncnc4ccccc34)CC2)cc1 | Active
O=C(Nc1ccc(Cl)cc1)C1CCN(c2ncnc3ccccc23)CC1 | Active
O=C(Nc1ccc([N+](=O)[O-])cc1)C1CCN(c2ncnc3ccccc23)CC1 | Active

Test system: A2780
Experiment: Inhibition of tumor sphere formation in human A2780 cells assessed as reduction in diameter of the sphere at IC50 concentration (Rvb > 200 micrometer)
Assay type: functional
Details: not given

SMILES | Activity [um]
COc1ccc(NC(=O)C2CCN(c3ncnc4ccccc34)CC2)cc1 | <200

Test system: A2780
Experiment: Downregulation of Oct4 expression in human A2780 cells at IC50 concentration
Assay type: functional, cell-based
Details: not given

SMILES | Activity
O=C(Nc1cccc(Cl)c1)C1CCN(c2ncnc3ccccc23)CC1 | Active
O=C(Nc1ccccc1Cl)C1CCN(c2ncnc3ccccc23)CC1 | Active
O=C(Nc1ccc(Cl)cc1)C1CCN(c2ncnc3ccccc23)CC1 | Active
O=C(Nc1ccc(Br)cc1)C1CCN(c2ncnc3ccccc23)CC1 | Active

Test system: A2780
Experiment: Inhibition of tumor sphere formation in human A2780 cells at IC50 concentration
Assay type: functional, cell-based
Details: not given

SMILES | inhibition
O=C(Nc1cccc(Cl)c1)C1CCN(c2ncnc3ccccc23)CC1 | Active
O=C(Nc1ccccc1Cl)C1CCN(c2ncnc3ccccc23)CC1 | Active
O=C(Nc1ccc(Cl)cc1)C1CCN(c2ncnc3ccccc23)CC1 | Active
O=C(Nc1ccc(Br)cc1)C1CCN(c2ncnc3ccccc23)CC1 | Active
O=C(Nc1ccc([N+](=O)[O-])cc1)C1CCN(c2ncnc3ccccc23)CC1 | Active

Test system: A2780
Experiment: Induction of apoptosis in human A2780 cells assessed as increase in cleaved caspase-3 level at IC50 concentration incubated for 72 hrs by immunoblotting analysis
Assay type: functional, cell-based
Details: not given

SMILES | Activity
O=C(Nc1cccc(Cl)c1)C1CCN(c2ncnc3ccccc23)CC1 | Active
O=C(Nc1ccccc1Cl)C1CCN(c2ncnc3ccccc23)CC1 | Active
COc1ccc(NC(=O)C2CCN(c3ncnc4ccccc34)CC2)cc1 | Active
O=C(Nc1ccc(Cl)cc1)C1CCN(c2ncnc3ccccc23)CC1 | Active
O=C(Nc1ccc([N+](=O)[O-])cc1)C1CCN(c2ncnc3ccccc23)CC1 | Active

Test system: not listed separately
Experiment: Cytotoxicity against HK-2 cells
Assay type: toxicity, cell-based
Details: human

SMILES | IC50 [µM]
O=C(Nc1ccccc1)C1CCN(c2ncnc3ccccc23)CC1 | > 50
O=C(Nc1cccc(Cl)c1)C1CCN(c2ncnc3ccccc23)CC1 | > 50
O=C(Nc1ccccc1Cl)C1CCN(c2ncnc3ccccc23)CC1 | > 50
Nc1nonc1C(=NO)Nc1ccc(F)c(Cl)c1 | 30.8
COc1ccc(NC(=O)C2CCN(c3ncnc4ccccc34)CC2)cc1 | > 50
O=C(Nc1ccc(Cl)cc1)C1CCN(c2ncnc3ccccc23)CC1 | > 50
O=C(Nc1ccc(Br)cc1)C1CCN(c2ncnc3ccccc23)CC1 | > 50
O=C(Nc1ccc([N+](=O)[O-])cc1)C1CCN(c2ncnc3ccccc23)CC1 | > 50

Test system: A2780
Experiment: Downregulation of Nanog expression in human A2780 cells at IC50 concentration
Assay type: functional, cell-based
Details: not given

SMILES | Activity
O=C(Nc1cccc(Cl)c1)C1CCN(c2ncnc3ccccc23)CC1 | Active
O=C(Nc1ccccc1Cl)C1CCN(c2ncnc3ccccc23)CC1 | Active
COc1ccc(NC(=O)C2CCN(c3ncnc4ccccc34)CC2)cc1 | Active
O=C(Nc1ccc(Cl)cc1)C1CCN(c2ncnc3ccccc23)CC1 | Active
O=C(Nc1ccc(Br)cc1)C1CCN(c2ncnc3ccccc23)CC1 | Active
O=C(Nc1ccc([N+](=O)[O-])cc1)C1CCN(c2ncnc3ccccc23)CC1 | Active
